Two molecules from the NIST ThermoML archive (doi:10.1021/je9008206) can be followed below.

The conditions of data set [1]: Crystal; DTA.
A short description of data set [2]: Molar enthalpy of transition or fusion. Particulars: Crystal; DSC.

The structures appear in SMILES notation. ± gives the expanded uncertainty stated by the source.

For the molecule `O=C1OC(=O)c2c(Cl)cccc21` [3-chlorophthalic anhydride], the Normal melting temperature in data set [1] was 124.80 ± 0.53 °C. For the same molecule, the “Molar enthalpy of transition or fusion” value in data set [2] stood at 3.19 ± 0.206 kcal/mol.
Turning to `O=C1OC(=O)c2cc(Cl)ccc21` [4-chlorophthalic anhydride], the Normal melting temperature in data set [1] was 94.20 ± 0.53 °C. Besides, the “Molar enthalpy of transition or fusion” value in data set [2] is 7.9 ± 0.239 kcal/mol.
